Measured values taken from patent US8815887B2, “Prophylactic or therapeutic method for Sjogren's syndrome” (Takeda Pharmaceutical Company Limited, priority 2012, dated 2014).

Legend:
Type in all cases: in vivo
NOD/ShiLtJ mouse [1] = experiment: Saliva secretion amount by pilocarpine stimulation in Sjogren's syndrome animal model
Source text: As an animal model for Sjogren's syndrome, most widely used NOD/ShiLtJ mouse (hereinafter sometimes referred to as NOD mouse) was selected since it meets the both conditions of the diagnosis standard: 1) development of dry eye and dry mouth, 2) increase of anti-SS-A/Ro and anti-SS-B/La antibody titer, and is easily available (Tegan N. Lavoie et. al., Journal of Biomedicine and Biotechnology Volume 2011 (2011), Article ID 549107, pp 1-14). 6-Week-old NOD mice were purchased from The Jackson Laboratory (US), after acclimatization for 1-2 weeks, animals before onset of diabetes were divided into 3 groups (maximum 30 mice per group) by randomization into each of the groups based on the body weight measured before the start of the test drug administration and the data of saliva secretion amount by pilocarpine stimulation under ketamine•xylazine anesthesia and subjected to the test. During the test drug treatment, the body weight and the blood glucose level were monitored at least once a week. The blood glucose level of several μL of the blood collected from the tail vein under 1-5% isoflurane anesthesia was measured by a blood glucose level measuring instrument (Accu-Chek Aviva Nano, Roche diagnostics K.K.). The diabetes diagnosis criteria was not less than 250 mg/dL, and one insulin pellet (LinBit, LinShin Canada, Inc.) was subcutaneously transplanted under 1-5% isoflurane anesthesia into the abdomen of the mouse that developed diabetes, and the blood glucose was controlled during the study by monitoring the blood glucose level, and adding or removing the pellet as necessary.
Compound A was orally administered twice daily (minimum ic dosing interval 6 hours) every day except Saturdays and Sundays. The dose of compound A was 50 mg/kg or 250 mg/kg, and 0.2 mL was orally administered as a single dose. The concentration of compound A was appropriately controlled by calculating an average body weight of the group once a week from the body weights of the NOD mice, and adjusting the concentration such that the administration of 0.2 mL results in the administration of each dose. On the other hand, the vehicle group without administration of compound A was orally administered with 0.2 mL of 0.5% methylcellulose solution in the same schedule as above.
Under anesthesia by intraperitoneal administration of a mixture (10 mL/kg) of ketamine (100 mg/kg) and xylazine (10 mg/kg), the saliva secreted in 15 min after subcutaneous administration of pilocarpine (5 mg/kg) was collected with defatted cotton, and the secretion amount was calculated from the defatted cotton weight before and after the measurement.
This measurement was performed twice when the mice reached 21-week-old and 26-week-old.
(§1) The saliva secretion amount in 23-week-old NOD mice administered with compound A or compound B was measured in the same manner as in Experimental Example 2.

NOD/ShiLtJ mouse [2] = experiment: Tolerability in the long-term efficacy study (Experimental Example 3); conditions: relatively long term, same dose range (50 and 250 mg/kg)
Protocol: as §1

[3] = system: CD4+ T cells in the salivary gland; experiment: CD4 mRNA level (CD4+ T cells) in salivary gland tissue, normalized to β-actin; conditions: 26-week-old NOD mouse, compound A treatment group (50 and 250 mg/kg)
Source text: (§2) The salivary gland of the 26-week-old NOD mice used in Experimental Example 2 for the measurement of the saliva secretion amount was removed, the total RNA was recovered from there, and the mRNA levels of CD4, CD8 and CCR9 were normalize with the β-actin expression level as the internal standard.

[4] = system: CD8+ T cells in the salivary gland; experiment: CD8 mRNA level (CD8+ T cells) in salivary gland tissue, normalized to β-actin; conditions: 26-week-old NOD mouse
Source text: as §2

CCR9 = CCR9 mRNA expression level in salivary gland tissue, normalized to β-actin; conditions: 26-week-old NOD mouse, 50 and 250 mg/kg
Source text: as §2

anti-SS-A/Ro antibody = experiment: Anti-SS-A/Ro Ig ELISA of blood of Sjogren's syndrome animal model; conditions: 26-week-old NOD mouse; for onset frequency (positive anti-SS-A/Ro, antibody titer not less than 30 Unit): vehicle 100% onset
Protocol: Blood samples from the 26-week-old NOD mice used in Experimental Example 2 for the measurement of the saliva secretion amount were collected, and ELISA test was carried out for two subsets of anti-SS-A/Ro and anti-SS-B/La found commonly in Sjogren's syndrome.
For quantification of the Total Anti-SSA Ig (IgG+IgA+IgM) in the serum, commercially available Mouse Anti-SSA Total Ig ELISA Kit Cat. No. 5710 (manufactured by ALPHA DIAGNOSTIC INTERNATIONAL) was used. The standard protocol was partly modified. A mouse serum sample was diluted 1/10-fold, the serum of C57BL/6 mouse was added to anti-SSA calibrator solution (Calibrator solution) to give 10% serum.

anti-SS-B/La antibody = experiment: Anti-SS-B/La IgG ELISA of blood of Sjogren's syndrome animal model; conditions: 26-week-old NOD mouse, 50 and 250 mg/kg
Protocol: Blood samples from the 26-week-old NOD mice used in Experimental Example 2 for the measurement of the saliva secretion amount were collected, and ELISA test was carried out for two subsets of anti-SS-A/Ro and anti-SS-B/La found commonly in Sjogren's syndrome. […]
antigen: SS-B (RayBiotech, Inc., MD-27-0019P) plate: Immuno 96 Microwell Plate (Nunc, 442404) washing: 0.1% Tween 20 containing PBS (hereinafter sometimes to be referred to as PBS/T) substrate: One tablet of o-phenylenediamine dihydrochloride (OPD) (Sigma, P-4809) was dissolved in 50 mM citric acid-phosphoric acid buffer pH 5.0 (Sigma, P-4809) (10 mL), and 4 μL aqueous hydrogen peroxide was added.
SS-A and SS-B were each diluted with 50 mM carbonate buffer pH 9.6 (Sigma, C-3041) to 0.5 μg/mL and 1.0 μg/mL, respectively, and the antigen was added to an ELISA plate at 50 μL/well. After incubation at 4° C. overnight, the plate was washed 3 times with PBS/T, added with 2% BSA in PBS at 200 μL/well, and incubated at room temperature for 1 hr. After washing once with PBS/T, the serum diluted with PBS/T (100- to 500-fold) was added at 50 μL/well, and the mixture was incubated at room temperature for 1-2 hr. […]

[5] = Time-course changes in plasma concentration in Sjogren's syndrome animal model; conditions: NOD mouse, oral twice per day 50 and 250 mg/kg, repeated for 19 weeks
Protocol: The compound was orally administered twice per day to 8-week-old NOD mouse under the following conditions, and administration was repeated for 19 weeks.
To the plasma (5 μL) collected from the NOD mouse were added a solvent solution (dimethyl sulfoxide/acetonitrile (2:8), 5 μL), and compound A solution (compound A dissolved in solvent solution, 5 μL) or compound B solution (compound B dissolved in solvent solution, 5 μL) for drawing an analytical curve. An internal standard substance (acetonitrile (115 μL) containing a deuterated form of compound A, or diclofenac sodium, 100 ng/mL)) was added, and the mixture was vigorously stirred. The mixture was centrifuged at 5250 rpm. To the supernatant (30 μL) was added a dilution solvent (60 μL) to give a sample solution (mobile phase A:mobile phase B=9:1 (v/v) was used as a dilution solvent).
The above-mentioned sample solution was injected into an HPLC-MS/MS analysis apparatus, and the obtained peak area was converted to concentration from the analytical curve. The detail of the analysis apparatus is shown below.

[6] = 23-week-old NOD mouse, 50 mg/kg

**Q.** For CC(C)Oc1ccc(S(=O)(=O)Nc2ccc(Cl)cc2C(=O)c2cc[n+]([O-])cc2)cc1 [compound A, N-{4-chloro-2-[(1-oxidopyridin-4-yl)carbonyl]phenyl}-4-(propan-2-yloxy)benzenesulfonamide], which saliva secretion amount (NOD/ShiLtJ mouse [1]; 21-week-old NOD mouse, 50 mg/kg orally twice daily from 8-week-old, vehicle about 8.3) is on record?
**A.** about 9.8 mg/15 min/g BW

**Q.** What about the saliva secretion amount (NOD/ShiLtJ mouse [1]; 21-week-old NOD mouse, 250 mg/kg orally twice daily from 8-week-old, vehicle about 8.3) of the same molecule?
**A.** about 11.2 mg/15 min/g BW

**Q.** And the “saliva secretion amount compared to the vehicle group” value (NOD/ShiLtJ mouse [1]; [6])?
**A.** significantly suppressed a decrease in the saliva secretion amount

**Q.** And the “saliva secretion amount compared to the vehicle group” value (NOD/ShiLtJ mouse [1]; 23-week-old NOD mouse, 250 mg/kg)?
**A.** significantly suppressed a decrease in the saliva secretion amount

**Q.** What about the saliva secretion amount (NOD/ShiLtJ mouse [1]; 26-week-old NOD mouse, 50 mg/kg orally twice daily from 8-week-old, vehicle about 4.0) of the same molecule?
**A.** about 5.5 mg/15 min/g BW

**Q.** And the “increase of saliva secretion amount than the vehicle group” value (NOD/ShiLtJ mouse [1]; 26-week-old NOD mouse, 250 mg/kg)?
**A.** two-fold increase

**Q.** And the saliva secretion amount (NOD/ShiLtJ mouse [1]; 26-week-old NOD mouse, 250 mg/kg orally twice daily from 8-week-old, vehicle about 4.0)?
**A.** about 8.0 mg/15 min/g BW

**Q.** What about the “effect on decrease in saliva secretion amount (dose dependence)” value (NOD/ShiLtJ mouse [1]; NOD mouse, 50 and 250 mg/kg, 21- and 26-week-old) of the same molecule?
**A.** significantly suppressed a decrease in the saliva secretion amount in a dose-dependent manner

**Q.** What about the tolerability (NOD/ShiLtJ mouse [2]) of the same molecule?
**A.** clearly superior with compound A to compound B

**Q.** What about the “amount of CD4+ T cells in the salivary gland as compared to the vehicle group” value [3] of the same molecule?
**A.** decreased to about half

**Q.** What about the “amount of CD8+ T cells in the salivary gland as compared to the vehicle group” value ([4]; 50 mg/kg) of the same molecule?
**A.** decreased to about half

**Q.** What about the “amount of CD8+ T cells in the salivary gland as compared to the vehicle group” value ([4]; 250 mg/kg) of the same molecule?
**A.** about one-third

**Q.** What about the “mRNA expression level of CCR9 in the salivary gland as compared to the vehicle group” value (CCR9) of the same molecule?
**A.** tended to decrease in a dose-dependent manner

**Q.** And the “onset frequency (positive anti-SS-A/Ro, antibody titer not less than 30 Unit)” value (anti-SS-A/Ro antibody; 50 mg/kg)?
**A.** about 50%

**Q.** What about the “share of treatment group with anti-SS-A/Ro antibody suppressed to the control level” value (anti-SS-A/Ro antibody; 250 mg/kg, control C57BL/6 mouse) of the same molecule?
**A.** about 70%

**Q.** And the “onset frequency (positive anti-SS-A/Ro, antibody titer not less than 30 Unit)” value (anti-SS-A/Ro antibody; 250 mg/kg)?
**A.** about 30%

**Q.** And the “anti-SS-A/Ro antibody titer in blood” value (anti-SS-A/Ro antibody; 50 and 250 mg/kg)?
**A.** decreased in a dose-dependent manner

**Q.** What about the “anti-SS-B/La antibody titer in blood” value (anti-SS-B/La antibody) of the same molecule?
**A.** decreased in a dose-dependent manner

**Q.** What about the blood exposure [5] of the same molecule?
**A.** good blood exposure

**Q.** What about the “metabolism / accumulation in the body” value [5] of the same molecule?
**A.** rapidly metabolized without accumulation in the body

**Q.** Which “saliva secretion amount compared to the vehicle group” value (NOD/ShiLtJ mouse [1]; [6]) does the source give for CC(C)(C)c1ccc(S(=O)(=O)Nc2ccc(Cl)cc2C(=O)c2cc[n+]([O-])cc2)cc1 [compound B, N-{4-chloro-2-[(1-oxidopyridin-4-yl)carbonyl]phenyl}-4-(tert-butyl)benzenesulfonamide] here?
**A.** significantly higher

**Q.** And the “dose-dependent effect on saliva secretion amount” value (NOD/ShiLtJ mouse [1]; 23-week-old NOD mouse, 50 and 250 mg/kg)?
**A.** the dose-dependent effect was not found

**Q.** What about the “AUC relative to compound A” value [5] of the same molecule?
**A.** about one-tenth that of compound A

**Q.** What about the “metabolism / accumulation in the body” value [5] of the same molecule?
**A.** rapidly metabolized without accumulation in the body
